Source: patent US20240335442A1 (Eurofarma Laboratórios S.A., priority 2021, published 2024)

Tests used:
[1] = target: human sodium channel Nav 1.7 (Homo sapiens (Human), UniProt Q15858); assay: Automated whole-cell voltage-clamp (ScreenPatch 384P), Nav 1.7 sodium current, Protocol 2; type: cell-based; settings: read-out: Nav1.7 IC50
In short: (§1)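 Peak TP1A sodium current block, scaled between DMSO vehicle and positive control, was fitted with a Hill equation to give IC50 at eight compound concentrations (≥5 min, room temperature) in stable CHO lines. Protocol 2 (0.05 Hz) used an 8 s −40 mV inactivating prepulse from −100 mV; Protocol 1 (0.1 Hz) held at −90 mV; test steps 10 mV for Nav1.8, 0 mV for Nav1.7.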

[2] = target: human sodium channel Nav 1.8 (Homo sapiens (Human), UniProt Q9Y5Y9); assay: Automated whole-cell voltage-clamp (ScreenPatch 384P), Nav 1.8 sodium current, Protocol 2; type: cell-based; settings: read-out: Nav1.8 IC50
In short: as §1

human sodium channel Nav 1.8, sequence (Q9Y5Y9 whole entry): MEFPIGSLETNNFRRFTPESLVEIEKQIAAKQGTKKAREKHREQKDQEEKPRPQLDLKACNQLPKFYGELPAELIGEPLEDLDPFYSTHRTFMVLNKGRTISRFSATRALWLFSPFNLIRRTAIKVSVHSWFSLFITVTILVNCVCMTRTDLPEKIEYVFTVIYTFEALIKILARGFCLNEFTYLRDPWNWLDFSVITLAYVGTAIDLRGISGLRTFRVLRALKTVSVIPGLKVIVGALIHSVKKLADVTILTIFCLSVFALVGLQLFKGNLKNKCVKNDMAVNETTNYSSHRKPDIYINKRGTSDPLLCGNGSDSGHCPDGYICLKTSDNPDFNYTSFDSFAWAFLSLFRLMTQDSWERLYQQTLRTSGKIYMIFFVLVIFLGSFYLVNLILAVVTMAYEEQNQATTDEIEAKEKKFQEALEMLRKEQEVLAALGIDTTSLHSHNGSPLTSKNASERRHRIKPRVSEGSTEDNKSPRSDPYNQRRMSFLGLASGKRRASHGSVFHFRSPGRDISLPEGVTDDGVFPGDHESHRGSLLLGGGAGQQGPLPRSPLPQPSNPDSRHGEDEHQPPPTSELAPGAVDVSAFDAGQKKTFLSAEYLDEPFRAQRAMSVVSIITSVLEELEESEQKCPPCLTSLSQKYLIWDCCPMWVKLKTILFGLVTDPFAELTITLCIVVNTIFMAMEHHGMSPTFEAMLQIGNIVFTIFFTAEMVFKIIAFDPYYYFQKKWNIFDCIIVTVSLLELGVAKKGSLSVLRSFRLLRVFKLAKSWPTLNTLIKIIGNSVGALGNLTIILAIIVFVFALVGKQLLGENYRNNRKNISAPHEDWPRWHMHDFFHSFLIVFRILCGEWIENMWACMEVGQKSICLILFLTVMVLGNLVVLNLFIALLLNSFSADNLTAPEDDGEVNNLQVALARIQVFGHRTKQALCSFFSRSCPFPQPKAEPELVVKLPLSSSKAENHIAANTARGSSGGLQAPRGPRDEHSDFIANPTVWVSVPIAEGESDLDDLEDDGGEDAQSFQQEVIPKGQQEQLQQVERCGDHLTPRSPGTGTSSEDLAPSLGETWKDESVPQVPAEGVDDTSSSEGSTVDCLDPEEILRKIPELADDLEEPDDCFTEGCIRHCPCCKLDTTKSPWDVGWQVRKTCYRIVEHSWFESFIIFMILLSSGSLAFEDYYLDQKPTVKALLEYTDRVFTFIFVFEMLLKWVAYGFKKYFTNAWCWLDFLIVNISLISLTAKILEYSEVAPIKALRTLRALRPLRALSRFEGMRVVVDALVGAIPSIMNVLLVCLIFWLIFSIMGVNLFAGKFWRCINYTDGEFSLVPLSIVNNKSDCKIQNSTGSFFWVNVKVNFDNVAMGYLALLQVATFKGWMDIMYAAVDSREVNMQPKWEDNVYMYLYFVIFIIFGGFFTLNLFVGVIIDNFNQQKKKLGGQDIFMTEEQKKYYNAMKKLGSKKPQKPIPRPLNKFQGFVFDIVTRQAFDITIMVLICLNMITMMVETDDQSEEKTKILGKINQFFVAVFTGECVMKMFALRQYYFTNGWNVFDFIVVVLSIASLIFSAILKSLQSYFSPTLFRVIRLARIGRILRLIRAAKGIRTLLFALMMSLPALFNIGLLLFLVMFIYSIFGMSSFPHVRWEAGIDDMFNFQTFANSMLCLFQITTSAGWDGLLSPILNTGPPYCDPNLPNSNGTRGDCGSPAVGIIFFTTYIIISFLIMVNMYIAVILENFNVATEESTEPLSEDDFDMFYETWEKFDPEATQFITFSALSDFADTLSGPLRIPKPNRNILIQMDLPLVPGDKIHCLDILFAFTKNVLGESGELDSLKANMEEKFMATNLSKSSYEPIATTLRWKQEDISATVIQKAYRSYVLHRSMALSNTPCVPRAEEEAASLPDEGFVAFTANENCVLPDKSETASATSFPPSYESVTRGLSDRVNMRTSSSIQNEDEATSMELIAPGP
human sodium channel Nav 1.7, sequence (Q15858 whole entry): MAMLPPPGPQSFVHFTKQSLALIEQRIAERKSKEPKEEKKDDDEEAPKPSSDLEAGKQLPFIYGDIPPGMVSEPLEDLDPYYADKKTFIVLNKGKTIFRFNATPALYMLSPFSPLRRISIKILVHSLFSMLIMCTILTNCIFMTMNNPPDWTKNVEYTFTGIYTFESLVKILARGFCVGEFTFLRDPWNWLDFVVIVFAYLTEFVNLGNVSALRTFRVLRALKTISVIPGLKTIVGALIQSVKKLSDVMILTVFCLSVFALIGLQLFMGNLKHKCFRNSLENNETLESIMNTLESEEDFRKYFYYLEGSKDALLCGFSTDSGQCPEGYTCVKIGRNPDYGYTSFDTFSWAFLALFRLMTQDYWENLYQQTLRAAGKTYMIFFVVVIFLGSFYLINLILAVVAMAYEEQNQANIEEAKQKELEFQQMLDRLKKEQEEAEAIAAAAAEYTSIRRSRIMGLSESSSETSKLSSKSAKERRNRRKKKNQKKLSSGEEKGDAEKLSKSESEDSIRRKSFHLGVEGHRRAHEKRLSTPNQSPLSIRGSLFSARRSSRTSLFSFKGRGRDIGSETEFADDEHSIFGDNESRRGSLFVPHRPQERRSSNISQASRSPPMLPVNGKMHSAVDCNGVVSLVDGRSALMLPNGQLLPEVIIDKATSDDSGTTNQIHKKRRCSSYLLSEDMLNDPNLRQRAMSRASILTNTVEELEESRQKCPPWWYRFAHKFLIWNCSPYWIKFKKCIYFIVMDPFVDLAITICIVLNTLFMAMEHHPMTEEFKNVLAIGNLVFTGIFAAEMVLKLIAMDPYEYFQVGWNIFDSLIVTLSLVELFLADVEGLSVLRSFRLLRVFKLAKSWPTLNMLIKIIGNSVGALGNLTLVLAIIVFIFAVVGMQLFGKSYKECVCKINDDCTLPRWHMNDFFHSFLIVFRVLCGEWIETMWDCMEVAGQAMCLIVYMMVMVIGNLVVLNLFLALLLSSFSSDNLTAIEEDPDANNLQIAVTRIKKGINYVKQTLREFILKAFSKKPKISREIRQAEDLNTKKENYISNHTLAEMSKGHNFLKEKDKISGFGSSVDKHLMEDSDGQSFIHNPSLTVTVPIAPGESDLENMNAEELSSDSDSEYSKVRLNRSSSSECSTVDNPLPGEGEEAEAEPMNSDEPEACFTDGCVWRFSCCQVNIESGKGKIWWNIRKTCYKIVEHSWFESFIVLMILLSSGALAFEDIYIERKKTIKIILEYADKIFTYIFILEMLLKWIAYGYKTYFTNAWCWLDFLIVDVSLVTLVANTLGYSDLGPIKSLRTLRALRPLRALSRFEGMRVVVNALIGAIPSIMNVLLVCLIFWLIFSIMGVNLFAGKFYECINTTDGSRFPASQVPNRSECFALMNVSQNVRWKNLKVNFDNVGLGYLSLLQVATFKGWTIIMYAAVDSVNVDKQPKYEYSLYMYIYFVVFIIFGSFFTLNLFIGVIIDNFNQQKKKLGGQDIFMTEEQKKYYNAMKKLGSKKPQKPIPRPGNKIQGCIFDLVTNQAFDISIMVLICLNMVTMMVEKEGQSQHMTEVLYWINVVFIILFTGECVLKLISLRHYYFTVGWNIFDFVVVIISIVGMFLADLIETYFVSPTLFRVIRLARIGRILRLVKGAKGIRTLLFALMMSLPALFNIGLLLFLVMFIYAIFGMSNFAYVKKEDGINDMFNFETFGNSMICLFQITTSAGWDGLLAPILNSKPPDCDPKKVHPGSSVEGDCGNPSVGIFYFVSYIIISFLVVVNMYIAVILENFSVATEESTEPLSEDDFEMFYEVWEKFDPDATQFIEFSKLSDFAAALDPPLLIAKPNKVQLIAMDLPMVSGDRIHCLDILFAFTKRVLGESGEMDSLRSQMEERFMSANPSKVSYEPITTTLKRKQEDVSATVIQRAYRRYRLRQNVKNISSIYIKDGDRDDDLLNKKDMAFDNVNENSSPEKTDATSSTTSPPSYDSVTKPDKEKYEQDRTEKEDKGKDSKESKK

| IC50 [1] [nM] | IC50 [2] [nM] | SMILES |
| --- | --- | --- |
| > 10000 | > 1000 | COc1cc(/C=N/NC(=O)c2nccnc2Cl)cc(OC)c1 [Compound 165, (E)-3-chloro-N′-(3,5-dimethoxybenzylidene)pyrazine-2-carbohydrazide] |
| > 300 | > 300 | CCOc1ccc(-c2cnc(OC)c(C(=O)N/N=C/c3cc(OC)cc(OC)c3)n2)cc1 [Compound 145, (E)-N′-(3,5-dimethoxybenzylidene)-6-(4-ethoxyphenyl)-3-methoxypyrazine-2-carbohydrazide] |
| > 300 | > 300 | CCOc1ccc(-c2cncc(C(=O)N/N=C/c3cc(OC)cc4ocnc34)n2)cc1 [Compound 6, (E)-6-(4-ethoxyphenyl)-N′-((6-methoxybenzo[d]oxazol-4-yl)methylene)pyrazine-2-carbohydrazide] |
| > 10000 | > 1000 | COc1cc(/C=N/NC(=O)c2cncc(-c3ccccc3Cl)n2)cc(OC)c1 [Compound 95, (E)-6-(2-chlorophenyl)-N′-(3,5-dimethoxybenzylidene)pyrazine-2-carbohydrazide] |
| > 300 | > 300 | CCOc1ccc(-c2cncc(C(=O)N/N=C/c3ccnc(OC)c3)n2)cc1 [Compound 10, (E)-6-(4-ethoxyphenyl)-N′-((2-methoxypyridin-4-yl)methylene)pyrazine-2-carbohydrazide] |
| > 10000 | 887 | COc1cc(/C=N/NC(=O)c2cncc(-c3ccc(C)cc3)n2)cc(OC)c1 [Compound 96, (E)-N′-(3,5-dimethoxybenzylidene)-6-(p-tolyl)pyrazine-2-carbohydrazide] |
| 7020 | 614 | COc1ccc(-c2cncc(C(=O)N/N=C/c3ccc(Cl)cc3)n2)cc1 [Compound 61, (E)-N′-(4-chlorobenzylidene)-6-(4-methoxyphenyl)pyrazine-2-carbohydrazide] |
| > 10000 | 394 | COc1cc(/C=N/NC(=O)c2cncc(-c3ccccc3)n2)cc(OC)c1 [Compound 97, (E)-N′-(3,5-dimethoxybenzylidene)-6-phenylpyrazine-2-carbohydrazide] |
| > 10000 | 459 | COc1cc(/C=N/NC(=O)c2cncc(-c3ccccc3OC)n2)cc(OC)c1 [Compound 102, (E)-N′-(3,5-dimethoxybenzylidene)-6-(2-methoxyphenyl)pyrazine-2-carbohydrazide] |
| > 10000 | > 1000 | COc1ccc(-c2cncc(C(=O)N/N=C/c3c(OC)cccc3OC)n2)cc1 [Compound 79, (E)-N′-(2,6-dimethoxybenzylidene)-6-(4-methoxyphenyl)pyrazine-2-carbohydrazide] |
| 233 | 221 | CCOc1ccc(-c2cncc(C(=O)N/N=C/c3cccc(OC)c3OC)n2)cc1 [Compound 27, (E)-N′-(2,3-dimethoxybenzylidene)-6-(4-ethoxyphenyl)pyrazine-2-carbohydrazide] |
| > 10000 | 300 | CCOc1ccc(-c2cncc(C(=O)N/N=C/C3CCCCCC3)n2)cc1 [Compound 182, (E)-N′-(cycloheptylmethylene)-6-(4-ethoxyphenyl)pyrazine-2-carbohyrazide] |
| > 10000 | > 1000 | COc1cc(/C=N/NC(=O)c2nccnc2C)cc(OC)c1 [Compound 139, (E)-N′-(3,5-dimethoxybenzylidene)-3-methylpyrazine-2-carbohydrazide] |
| 666 | 332 | COc1cc(/C=N/NC(=O)c2cncc(-c3ccc(CC(C)C)cc3)n2)cc(OC)c1 [Compound 116, (E)-N′-(3,5-dimethoxybenzylidene)-6-(4-isobutylphenyl)pyrazine-2-carbohydrazide] |
| 1390 | > 1000 | CCOc1ccc(-c2cncc(C(=O)N/N=C/c3cccc(OC)c3)n2)c(OC(C)C)c1 [Compound 154, (E)-6-(4-ethoxy-2-isopropoxyphenyl)-N′-(3-methoxybenzylidene)pyrazine-2-carbohydrazide] |
| 1310 | 158 | COc1ccc(-c2cncc(C(=O)N/N=C/c3ccccc3C(F)(F)F)n2)cc1 [Compound 49, (E)-6-(4-methoxyphenyl)-N′-(2-(trifluoromethyl)benzylidene)pyrazine-2-carbohydrazide] |
| 212 | 149 | COc1cc(/C=N/NC(=O)c2cncc(-c3ccc(OC4CCCCC4)cc3)n2)cc(OC)c1 [Compound 89, (E)-6-(4-(cyclohexyloxy)phenyl)-N′-(3,5-dimethoxybenzylidene)pyrazine-2-carbohydrazide] |

| IC50 [1] [nM] | IC50 [2] [nM] | SMILES |
| --- | --- | --- |
| > 10000 | > 1000 | COc1cc(/C=N/NC(=O)c2cncc(-c3ccccc3F)n2)cc(OC)c1 [Compound 98, (E)-N′-(3,5-dimethoxybenzylidene)-6-(2-fluorophenyl)pyrazine-2-carbohydrazide] |
| > 10000 | > 1000 | COc1ccc(-c2cncc(C(=O)N/N=C/c3ccc(C(C)(C)C)cc3)n2)cc1 [Compound 66, (E)-N′-(4-(tert-butyl)benzylidene)-6-(4-methoxyphenyl)pyrazine-2-carbohydrazide] |
| > 10000 | > 1000 | COc1cc(/C=N/NC(=O)c2cncc(-c3ccccn3)n2)cc(OC)c1 [Compound 125, (E)-N′-(3,5-dimethoxybenzylidene)-6-(pyridin-2-yl)pyrazine-2-carbohydrazide] |
| 3900 | 621 | COc1ccc(-c2cncc(C(=O)N/N=C/c3ccccc3OC)n2)cc1 [Compound 42, (E)-N′-(2-methoxybenzylidene)-6-(4-methoxyphenyl)pyrazine-2-carbohydrazide] |
| 499 | 117 | COc1cc(/C=N/NC(=O)c2cncc(-c3ccc(OC)cc3F)n2)cc(OC)c1 [Compound 121, (E)-N′-(3,5-dimethoxybenzylidene)-6-(2-fluoro-4-methoxyphenyl)pyrazine-2-carbohydrazide] |
| 239 | 32.5 | CCOc1ccc(-c2cncc(C(=O)N/N=C/c3cc(OC)cc(OC)c3)n2)cc1 [Compound 2, (E)-N′-(3,5-dimethoxybenzylidene)-6-(4-ethoxyphenyl)pyrazine-2-carbohydrazide] |
| > 10000 | > 1000 | COc1cc(/C=N/NC(=O)c2cncc(N3CCCC(F)(F)CC3)n2)cc(OC)c1 [Compound 179, (E)-6-(4,4-difluoroazepan-1-yl)-N′-(3,5-dimethoxybenzylidene)pyrazine-2-carbohydrazide] |
| 566 | 149 | COc1cc(/C=N/NC(=O)c2cncc(-c3ccc(OC)cc3C)n2)cc(OC)c1 [Compound 109, (E)-N′-(3,5-dimethoxybenzylidene)-6-(4-methoxy-2-methylphenyl)pyrazine-2-carbohydrazide] |
| 2910 | 311 | COc1ccc(-c2cncc(C(=O)N/N=C/c3cccc(Cl)c3)n2)cc1 [Compound 54, (E)-N′-(3-chlorobenzylidene)-6-(4-methoxyphenyl)pyrazine-2-carbohydrazide] |
| 181 | 73.2 | COc1cc(/C=N/NC(=O)c2cncc(-c3ccc(OC)cc3OC)n2)cc(OC)c1 [Compound 124, (E)-N′-(3,5-dimethoxybenzylidene)-6-(2,4-dimethoxyphenyl)pyrazine-2-carbohydrazide] |
| 5120 | > 1000 | COc1cc(/C=N/NC(=O)c2cncc(-c3ccc(OC)cc3Cl)n2)cc(OC)c1 [Compound 122] |
| 2350 | 966 | COc1cc(/C=N/NC(=O)c2cncc(-c3ccc(OC)cc3OC(F)(F)F)n2)cc(OC)c1 [Compound 112] |
| 5150 | 650 | CCOc1ccc(-c2cnc(C)c(C(=O)N/N=C/c3cc(OC)cc(OC)c3)n2)cc1 [Compound 143, (E)-N′-(3,5-dimethoxybenzylidene)-6-(4-ethoxyphenyl)-3-methylpyrazine-2-carbohydrazide] |
| > 10000 | > 1000 | COc1ccc(-c2nccnc2C(=O)N/N=C/c2cc(OC)cc(OC)c2)cc1 [Compound 90, (E)-N′-(3,5-dimethoxybenzylidene)-3-(4-methoxyphenyl)pyrazine-2-carbohydrazide] |
| 189 | 73 | CCOc1ccc(-c2cncc(C(=O)N/N=C/c3cc(OC)cc(OC)c3OC)n2)cc1 [Compound 13, (E)-6-(4-ethoxyphenyl)-N′-(2,3,5-trimethoxybenzylidene)pyrazine-2-carbohydrazide] |
| > 10000 | > 1000 | COc1cc(/C=N/NC(=O)c2cncc(C)n2)cc(OC)c1 [Compound 137, (E)-N′-(3,5-dimethoxybenzylidene)-6-methylpyrazine-2-carbohydrazide] |
| > 10000 | > 1000 | COc1cc(/C=N/NC(=O)c2cncc(-c3ccc(C(=O)NS(C)(=O)=O)cc3)n2)cc(OC)c1 [Compound 190, (E)-4-(6-(2-(3,5-dimethoxybenzylidene)hydrazine-1-carbonyl)pyrazin-2-yl)-N-(methylsulfonyl)benzamide] |

| SMILES | IC50 [1] [nM] | IC50 [2] [nM] |
| --- | --- | --- |
| COc1cc(/C=N/NC(=O)c2cncc(-c3ccc(OC(C)(C)C)cc3)n2)cc(OC)c1 [Compound 87, (E)-6-(4-(tert-butoxy)phenyl)-N′-(3,5-dimethoxybenzylidene)pyrazine-2-carbohydrazide] | 264 | 447 |
| CCCCOc1ccc(-c2cncc(C(=O)N/N=C/c3cc(OC)cc(OC)c3)n2)c(Cl)c1 [Compound 158, (E)-6-(4-butoxy-2-chlorophenyl)-N′-(3,5-dimethoxybenzylidene)pyrazine-2-carbohydrazide] | 245 | 282 |
| CCCCOc1ccc(-c2cncc(C(=O)N/N=C/c3cc(C)cc(C)c3)n2)cc1 [Compound 84, (E)-6-(4-butoxyphenyl)-N′-(3,5-dimethylbenzylidene)pyrazine-2-carbohydrazide] | 179 | 152 |
